Experimental data published in PubChem BioAssay (NCI).
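Following 48 hours of exposure in 96-well plates, responses at five concentrations were used to interpolate endpoints linearly. The concentration for 50% growth inhibition is given as GI50. The concentration for full growth arrest is given as TGI.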

Assays:
Test in all cases: NCI anticancer screen, dose series, 48 h
[1] = test system: BT-549 breast
[2] = test system: CAKI-1 renal
[3] = test system: COLO 205 colon
[4] = test system: HOP-62 NSCLC
[5] = test system: MDA-MB-231 breast
[6] = test system: MOLT-4 leukemia
[7] = test system: OVCAR-8 ovarian
[8] = test system: RXF 393 renal
[9] = test system: SK-MEL-28 melanoma
[10] = test system: SK-MEL-5 melanoma
[11] = test system: NCI-H226 lung

Row | Compound | TGI [1] [µM] | TGI [2] [µM] | TGI [3] [µM] | TGI [4] [µM] | TGI [5] [µM] | TGI [6] [µM] | TGI [7] [µM] | TGI [8] [µM] | TGI [9] [µM] | TGI [10] [µM] | TGI [11] [µM] | GI50 [1] [µM] | GI50 [2] [µM] | GI50 [3] [µM] | GI50 [5] [µM] | GI50 [6] [µM] | GI50 [11] [µM] | GI50 [8] [µM] | GI50 [9] [µM] | GI50 [10] [µM]
1 | CS(=O)(=O)OC1CN2CCC1CC2 (configuration not stated) | > 100 | > 100 | > 100 | > 100 | > 100 | > 100 | > 100 | > 100 | > 100 | > 100 |  |  |  |  |  |  |  |  |  | 
2 | Cc1ccc(NP(=O)(Oc2ccccc2)N(CCCl)CCCl)cc1 (configuration not stated) |  | > 100 | > 100 | > 100 |  | > 100 | > 100 |  | > 100 | > 100 | > 100 |  |  |  |  |  |  |  |  | 
3 | C=CCc1cc(-c2cc(CC=C)c(O)c(CNC)c2)cc(CNC)c1O |  |  | 33.5 | 33.4 |  | 31.1 | 32.5 |  | 34 | 29.7 | 31 |  |  |  |  |  |  |  |  | 
4 | O=C1N(c2ccccc2)C2(c3ccccc3)CC3CCCC13S2 (configuration not stated) | > 100 | > 100 | > 100 | > 100 | > 100 | > 100 | > 100 | > 100 | > 100 | > 100 | > 100 |  |  |  |  |  |  |  |  | 
5 | CCN(CC)CCCC(C)Nc1ccnc2cc3ccccc3cc12 (configuration not stated) | 29.2 | 42.2 | 11.7 | > 100 | > 100 | > 100 | 54.2 | 31.4 |  | 37.1 | > 100 |  |  |  |  |  |  |  |  | 
6 | O=C(O)c1cc(=O)[nH]c(SCc2ccccc2)n1 | > 100 | > 100 |  | > 100 | > 100 | > 100 | > 100 | > 100 | > 100 | > 100 | > 100 |  |  |  |  |  |  |  |  | 
7 | CSc1nc(NC2OCC(OC(C)=O)C(OC(C)=O)C2OC(C)=O)c(N=C(C)C(C)=O)c(=O)[nH]1 (configuration not stated) |  | > 100 | > 100 |  |  | > 100 | > 100 | > 100 | > 100 | > 100 |  |  |  |  |  |  |  |  |  | 
8 | COc1ccc(C2CC(c3cccc(Nc4ccncc4)c3)=NN2c2ccc(Cl)cc2)cc1 (configuration not stated) | 4 | 2.64 | 3.76 |  | 2.65 | 4.1 |  | 3.03 | 3.2 | 3.18 | 7.73 | 1.92 | 1.32 | 1.78 | 1.33 | 1.81 | 2.27 | 1.59 | 1.73 | 1.77
9 | CCCCCCCCCCCCCCCc1ccc(OCC(O)CO)cc1 (configuration not stated) |  | > 100 | 59.3 | > 100 |  | > 100 | 72.7 | 35.4 | 62.2 | > 100 | 58.5 |  |  |  |  |  |  |  |  | 
10 | CCN1C=C/C(=C\C=C/c2cc[n+](CC)c3ccccc23)c2ccccc21 | 51.2 |  | 17 | 8.18 | 9.32 | 19.7 | 17.1 | 70.3 | 21.8 | 21.2 | 16 |  |  |  |  |  |  |  |  | 
11 | Cc1cccc2cc3c(ccc4ccccc43)c[n+]12 | 54.1 |  | 31.6 | > 100 | > 100 | > 100 | > 100 | > 100 | 34.3 | 22.1 |  |  |  |  |  |  |  |  |  | 
12 | Nc1cc2c(nnn2C2OC(COCc3ccccc3)C(OCc3ccccc3)C2OCc2ccccc2)c(=O)[nH]1 (configuration not stated) | 90.3 | > 100 | 20.3 | > 100 | > 100 | 38.9 | > 100 | 39.5 | > 100 | 19.9 | 53.7 |  |  |  |  |  |  |  |  | 
13 | O=C(C[C@H](NC(=O)OCc1ccccc1)C(=O)NC1Cc2ccccc2OC1=O)OCc1ccccc1 (some centres not stated) | > 100 | > 100 | > 100 | > 100 | 71.6 | > 100 | > 100 | > 100 | > 100 | > 100 | > 100 |  |  |  |  |  |  |  |  | 
14 | O=S1(=O)C(c2ccccc2)C(N2CCCCC2)C1C1CC2c3ccccc3C1c1ccccc12 (configuration not stated) | > 100 | > 100 | > 100 | > 100 | > 100 | > 100 | > 100 | > 100 | > 100 | > 100 | > 100 |  |  |  |  |  |  |  |  | 
15 | O=C(C=P(c1ccccc1)(c1ccccc1)c1ccccc1)c1cccc(-c2cccc([N+](=O)[O-])c2)c1 | > 100 | 6.26 | 2.91 | > 100 | 7.04 | 5.37 | > 100 | > 100 | 10.9 | 5.93 |  |  |  |  |  |  |  |  |  | 
16 | O=Cc1cc([N+](=O)[O-])no1 | > 100 | > 100 | > 100 | > 100 | 64.3 | 81.5 | > 100 | > 100 | > 100 | 36.6 | > 100 |  |  |  |  |  |  |  |  | 
17 | CC(C)(C)OC(=O)NCC(=O)NC1c2ccsc2/C(=N/O)[C@H]1O (some centres not stated) | > 100 | > 100 | > 100 | > 100 | > 100 | > 100 | > 100 | > 100 | > 100 | > 100 | > 100 |  |  |  |  |  |  |  |  | 
18 | CCOC(=O)C[C@@H]1C2(C=C[C@@]13CO3)OCC(C)(C)CO2 | > 100 | > 100 | > 100 | > 100 | > 100 | > 100 | > 100 | > 100 | > 100 | > 100 | > 100 |  |  |  |  |  |  |  |  | 
19 | C#CCn1ncc2c(SC)ncnc21 | > 100 | > 100 | > 100 | > 100 | > 100 | > 100 | > 100 | > 100 | > 100 | > 100 | > 100 |  |  |  |  |  |  |  |  | 
20 | Nc1ccc(-c2cssc2=S)cc1 | > 100 | > 100 | > 100 | > 100 | > 100 | > 100 | > 100 | > 100 | > 100 | > 100 | > 100 |  |  |  |  |  |  |  |  | 
21 | CCCCCCNC(=O)c1cc(CCc2cc(O)ccc2O)ccc1O | 4.35 | 13.6 | 41.6 | 25 | 5.8 | > 24.5 | 17.6 | 4.39 | 7.37 | 15.6 | 19.8 |  |  |  |  |  |  |  |  | 
22 | CC(=O)Nc1ccc(N=C2C(c3ccccc3)=C(SC3=C(c4ccccc4)C(=Nc4ccc(NC(C)=O)cc4)c4ccccc43)c3ccccc32)cc1 | 73.1 | > 100 | > 100 | > 100 | > 100 | 63 | > 100 | 82.8 | > 100 | 31.3 | > 100 |  |  |  |  |  |  |  |  | 
23 | CO/C=C(/C(=O)OC)c1ccccc1[C@@H]1CC1c1cccc(F)c1 (some centres not stated) | 61.4 | 70.4 | 30.3 | > 100 | > 100 | > 100 | > 100 | > 100 | > 100 | 24.8 | > 100 |  |  |  |  |  |  |  |  | 
24 | O=c1cc(-c2ccc(O)cc2)n(C2CC2)c2ccccc12 |  | 20.8 | 15.1 | 21.3 | 22.2 | > 100 | 47.1 | 8.42 |  | 18.5 | 16.4 |  |  |  |  |  |  |  |  | 
25 | O=C1CS(=O)(=O)C(c2cccc(Oc3ccccc3)c2)N1c1cccc(Cl)c1 (configuration not stated) | 93.2 | 83.5 | 41.1 | > 100 | > 100 | 58.1 | 82.8 | 52.7 | > 100 | 31.1 | > 100 |  |  |  |  |  |  |  |  | 
26 | c1ccc(C2CC(c3cccc(Nc4ccncc4)c3)=NN2c2ccccc2)cc1 (configuration not stated) | 3.87 | 2.74 | 3.86 |  | 3 | 4.83 |  |  | 3.19 | 3.22 | 28.7 | 1.88 | 1.39 | 1.9 | 1.61 | 2.02 | 8.39 |  | 1.76 | 1.77
27 | N#Cc1c(NC(=S)Nc2ccc(Cl)cc2)sc2c1CCCC2 | > 100 | > 100 | > 100 |  | > 100 | 33.8 | > 100 | > 100 | > 100 | > 100 | > 100 |  |  |  |  |  |  |  |  | 
28 | Cc1cc2c(cc1Cl)SC(c1ccccc1)C(=O)NS2(=O)=O (configuration not stated) |  | > 100 |  | > 100 | > 100 | 60.7 | > 100 | > 100 | > 100 | 48.8 | > 100 |  |  |  |  |  |  |  |  | 
29 | CC(=O)Oc1c(C)c2c(O)c3c1C1=C(OCOC1=C(C)C3=O)/C(C)=C\C(C)(O)C(O)C(C)C(O)C1C(=O)OC(C(C)C1O)C(C)(O)/C=C/C=C(C)C(=O)N2 (configuration not stated) | > 100 | 64.5 | > 100 | > 100 | > 100 | > 100 | > 100 | 70.4 | > 100 | > 100 | 75.7 |  |  |  |  |  |  |  |  | 
30 | Cc1nc2c(n1C)C(=O)c1nc(CBr)[nH]c(=O)c1C2=O |  |  | > 100 |  |  | > 100 | > 100 | > 100 | > 100 | 39 |  |  |  |  |  |  |  |  |  | 
